Experimental data taken from patent publication US7858635B2 (priority 2005, dated 2010).
Read-outs that look alike come from different tables or passages of the source.

Legend:
M1 muscarinic receptor = molecular target: T1, M1 muscarinic receptor (Homo sapiens, UniProt P11229); assay: Functional mobilization of intracellular calcium (FLIPR, Fluo-3), M1-CHO cells; type: cell-based; details: for Emax: read-out: M1 Efficacy
T1 construct: expressed in transfected cells; host or cells: CHO cells (M1-CHO, under zeocin and G418 selection)
T1 sequence (P11229 1-460): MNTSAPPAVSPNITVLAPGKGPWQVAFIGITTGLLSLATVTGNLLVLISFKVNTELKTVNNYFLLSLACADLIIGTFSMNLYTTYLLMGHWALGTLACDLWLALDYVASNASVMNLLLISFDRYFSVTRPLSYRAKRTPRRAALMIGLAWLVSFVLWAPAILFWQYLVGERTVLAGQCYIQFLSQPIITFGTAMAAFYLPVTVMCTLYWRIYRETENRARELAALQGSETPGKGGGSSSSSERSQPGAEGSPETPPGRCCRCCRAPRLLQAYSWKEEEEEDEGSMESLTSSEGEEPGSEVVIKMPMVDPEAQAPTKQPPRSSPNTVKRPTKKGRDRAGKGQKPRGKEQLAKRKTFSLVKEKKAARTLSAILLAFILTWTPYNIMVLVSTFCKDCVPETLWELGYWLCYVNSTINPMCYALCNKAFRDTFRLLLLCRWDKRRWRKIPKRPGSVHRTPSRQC
Outline: (§1)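 Intracellular calcium was tracked by fluorescence (488/540 nm) over 60 sec after compound addition to dye-loaded CHO cells expressing the receptor. Inhibitory activity used a 15 min pre-incubation before carbachol at the subtype EC80.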

M4 muscarinic receptor = molecular target: T2, M4 muscarinic receptor (Homo sapiens, UniProt P08173); assay: Functional mobilization of intracellular calcium (FLIPR, Fluo-3), M4-CHO cells; type: cell-based; details: for Emax: read-out: M4 Efficacy
T2 construct: expressed in transfected cells; host or cells: CHO cells (M4-CHO, under puromycin, zeocin and blasticidin selection)
T2 sequence (P08173 1-479): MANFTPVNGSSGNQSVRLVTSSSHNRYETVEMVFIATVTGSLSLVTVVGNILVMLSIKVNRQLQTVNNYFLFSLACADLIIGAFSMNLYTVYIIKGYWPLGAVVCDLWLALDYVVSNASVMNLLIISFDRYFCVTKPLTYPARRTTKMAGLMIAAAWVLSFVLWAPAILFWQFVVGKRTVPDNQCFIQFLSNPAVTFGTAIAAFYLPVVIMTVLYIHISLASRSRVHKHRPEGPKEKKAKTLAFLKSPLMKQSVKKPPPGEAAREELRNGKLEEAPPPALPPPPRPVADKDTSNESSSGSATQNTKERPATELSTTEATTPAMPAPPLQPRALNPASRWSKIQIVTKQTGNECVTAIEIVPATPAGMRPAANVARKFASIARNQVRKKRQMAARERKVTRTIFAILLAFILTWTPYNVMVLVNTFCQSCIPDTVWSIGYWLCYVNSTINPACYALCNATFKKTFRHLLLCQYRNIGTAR
Outline: as §1

[1] = compound nos. 1-454, 100% efficacy is the maximum response obtained with the Carbachol control
[2] = compound nos. 1-454, M1-CHO cells, calcium mobilization
[3] = compound nos. 1-454, M4-CHO cells, calcium mobilization
[4] = compound nos. 455-509, 100% efficacy is the maximum response obtained with the Carbachol control

| SMILES | Emax (M1 muscarinic receptor; [1]) [%] | Emax (M4 muscarinic receptor; [1]) [%] | M1 Activity (M1 muscarinic receptor; [2]) | M4 Activity (M4 muscarinic receptor; [3]) | other results |
| --- | --- | --- | --- | --- | --- |
| COC(=O)N1C2CCC1CC(N1CCC3(CC1)CN(S(C)(=O)=O)c1ccc(F)cc13)C2 (stereo not shown) [compound 383] | 65 to 85 | < 55 |  |  | M1 Activity (M1 muscarinic receptor; compound nos. 1-454): +++ (activity was measured to be less than or equal to 0.7 μM); M4 Activity (M4 muscarinic receptor; compound nos. 1-454): ++ (activity was measured to be between 0.1 μM and 4.0 μM) |
| CC(=O)N1CC2(CCN(CC3CCN(C(=O)O[C@@H]4CCOC4)CC3)CC2)c2cc(F)ccc21 [compound 14] | 65 to 85 | > 70 | +++ (activity was measured to be less than or equal to 0.7 μM) | +++ (activity was measured to be less than or equal to 0.1 μM) |  |
| COc1ccc(F)cc1N1CCC(N2CCC3(CC2)CN(C(=O)N(C)C)c2ccc(F)cc23)CC1 [compound 443] | 65 to 85 | 55 to 70 |  |  | M1 Activity (M1 muscarinic receptor; compound nos. 1-454): ++ (activity was measured to be between 0.7 μM and 3.0 μM); M4 Activity (M4 muscarinic receptor; compound nos. 1-454): ++ (activity was measured to be between 0.1 μM and 4.0 μM) |
| CCOC(=O)N[C@H]1CC2(CCN(C[C@H]3C[C@H]4CC[C@H]3C4)CC2)c2ccccc21 [compound 326] | < 65 | < 55 | + (activity was measured to be greater than or equal to 3.0 μM) | + (activity was measured to be greater than or equal to 4.0 μM) |  |
| CCOC(=O)N1CCC(N2CCC3(CC2)CN(C(C)=O)c2ccc(OC(F)(F)F)cc23)CC1 [compound 225] | < 65 | < 55 | + (activity was measured to be greater than or equal to 3.0 μM) | + (activity was measured to be greater than or equal to 4.0 μM) |  |
| CN(C)C(=O)N1CCC2(CCN(C3CCN(c4cnccn4)CC3)CC2)c2ccccc21 [compound 457] |  |  |  |  | Emax (M1 muscarinic receptor; [4]): > 100%; M1 Activity (M1 muscarinic receptor; compounds 455-509): +++ (activity was measured to be less than or equal to 2.0 μM); Emax (M4 muscarinic receptor; [4]): 25 to 100%; M4 Activity (M4 muscarinic receptor; compounds 455-509): ++ (activity was measured to be between 2.0 μM and 5.0 μM) |
| COC(=O)N1CCC(CN2CCC3(CC2)CN(C(C)=O)c2ccc(C)cc23)CC1 [compound 423] | < 65 | < 55 |  |  | M1 Activity (M1 muscarinic receptor; compound nos. 1-454): ++ (activity was measured to be between 0.7 μM and 3.0 μM); M4 Activity (M4 muscarinic receptor; compound nos. 1-454): + (activity was measured to be greater than or equal to 4.0 μM) |
| CCOC(=O)N1CCC(N2CCC3(CC2)CN(C(=O)c2ccccc2OC)c2ccc(F)cc23)CC1 [compound 262] | < 65 | < 55 | + (activity was measured to be greater than or equal to 3.0 μM) | + (activity was measured to be greater than or equal to 4.0 μM) |  |
| CCOC(=O)N1CCC(N2CCC3(CC2)CN(C(=O)c2ccno2)c2ccc(F)cc23)CC1 [compound 321] | 65 to 85 | 55 to 70 | ++ (activity was measured to be between 0.7 μM and 3.0 μM) | + (activity was measured to be greater than or equal to 4.0 μM) |  |
| CCCOC(=O)N1CCC(N2CCC3(CC2)CN(C(C)=O)c2ccc(C)cc23)CC1 [compound 252] | < 65 | 55 to 70 | + (activity was measured to be greater than or equal to 3.0 μM) | + (activity was measured to be greater than or equal to 4.0 μM) |  |
| Fc1ccc2c(c1)C1(CCN(C3CCC4CCC3C4)CC1)CN2 (stereo not shown) [compound 111] | 65 to 85 | < 55 | +++ (activity was measured to be less than or equal to 0.7 μM) | ++ (activity was measured to be between 0.1 μM and 4.0 μM) |  |
| CCc1nsc(N2CCC(N3CCC4(CC3)CN(C(C)=O)c3ccccc34)CC2)n1 [compound 498] |  |  |  |  | Emax (M1 muscarinic receptor; [4]): > 100%; M1 Activity (M1 muscarinic receptor; compounds 455-509): +++ (activity was measured to be less than or equal to 2.0 μM); Emax (M4 muscarinic receptor; [4]): 25 to 100%; M4 Activity (M4 muscarinic receptor; compounds 455-509): ++ (activity was measured to be between 2.0 μM and 5.0 μM) |
| CCOC(=O)N1CCC(N2CCC3(CC2)CN(C(=O)c2ccc(F)cc2)c2ccc(F)cc23)CC1 [compound 77] | 65 to 85 | < 55 | +++ (activity was measured to be less than or equal to 0.7 μM) | ++ (activity was measured to be between 0.1 μM and 4.0 μM) |  |
| Cc1ccc2c(c1)C1(CCN(CC3CC4CCC3O4)CC1)CN2 (stereo not shown) [compound 372] | 65 to 85 | > 70 | +++ (activity was measured to be less than or equal to 0.7 μM) | ++ (activity was measured to be between 0.1 μM and 4.0 μM) |  |
| Cc1cncc(N2CCC(N3CCC4(CC3)CN(C(=O)N(C)C)c3ccccc34)CC2)n1 [compound 478] |  |  |  |  | Emax (M1 muscarinic receptor; [4]): > 100%; M1 Activity (M1 muscarinic receptor; compounds 455-509): +++ (activity was measured to be less than or equal to 2.0 μM); Emax (M4 muscarinic receptor; [4]): 25 to 100%; M4 Activity (M4 muscarinic receptor; compounds 455-509): ++ (activity was measured to be between 2.0 μM and 5.0 μM) |
| CCOC(=O)N1CCC(N2CCC3(CC2)C[C@H](NC(C)=O)c2ccccc23)CC1 [compound 61] |  |  | +++ (activity was measured to be less than or equal to 0.7 μM) | ++ (activity was measured to be between 0.1 μM and 4.0 μM) | M1 Efficacy (M1 muscarinic receptor; [1]): ++ (efficacy was calculated to be between 85% and 65%); M4 Efficacy (M4 muscarinic receptor; [1]): ++ (efficacy was calculated to be between 70% and 55%) |
| CC(=O)N1CC2(CCN(CC3CCN(C(=O)OC(C)C)CC3)CC2)c2cc(C)ccc21 [compound 404] | < 65 | < 55 |  |  | M1 Activity (M1 muscarinic receptor; compound nos. 1-454): ++ (activity was measured to be between 0.7 μM and 3.0 μM); M4 Activity (M4 muscarinic receptor; compound nos. 1-454): + (activity was measured to be greater than or equal to 4.0 μM) |
| COCCOC(=O)N1CCC(N2CCC3(CC2)CN(C(C)=O)c2ccc(C)cc23)CC1 [compound 293] | > 85 | > 70 | ++ (activity was measured to be between 0.7 μM and 3.0 μM) | +++ (activity was measured to be less than or equal to 0.1 μM) |  |
| CN(C)C(=O)N1CC2(CCN(C3CCN(C(=O)O[C@H]4CCOC4)CC3)CC2)c2cc(F)ccc21 [compound 120] | < 65 | < 55 | ++ (activity was measured to be between 0.7 μM and 3.0 μM) | + (activity was measured to be greater than or equal to 4.0 μM) |  |
| COCCOC(=O)N1CCC(N2CCC3(CC2)CN(C(=O)N(C)C)c2ccc(F)cc23)CC1 [compound 265] | < 65 | < 55 | ++ (activity was measured to be between 0.7 μM and 3.0 μM) | ++ (activity was measured to be between 0.1 μM and 4.0 μM) |  |
| CCOC(=O)N1CCC(N2CCC3(CC2)CN(C(C)=O)c2ccc(-c4ccccc4)cc23)CC1 [compound 126] | < 65 | < 55 | +++ (activity was measured to be less than or equal to 0.7 μM) | + (activity was measured to be greater than or equal to 4.0 μM) |  |
| CCCCOC(=O)N1CC2(CCN(C3CCN(C(=O)OCC)CC3)CC2)c2cc(F)ccc21 [compound 220] | 65 to 85 | < 55 | + (activity was measured to be greater than or equal to 3.0 μM) | + (activity was measured to be greater than or equal to 4.0 μM) |  |
| Clc1ccc2c(c1)C1(CCN(C3CCC4CCC3C4)CC1)CN2 (stereo not shown) [compound 348] | > 85 | > 70 | +++ (activity was measured to be less than or equal to 0.7 μM) | ++ (activity was measured to be between 0.1 μM and 4.0 μM) |  |
| Cc1nsc(N2CCC(N3CCC4(CCN(C(=O)N(C)C)c5ccccc54)CC3)CC2)n1 [compound 474] |  |  |  |  | Emax (M1 muscarinic receptor; [4]): > 100%; M1 Activity (M1 muscarinic receptor; compounds 455-509): +++ (activity was measured to be less than or equal to 2.0 μM); Emax (M4 muscarinic receptor; [4]): 25 to 100%; M4 Activity (M4 muscarinic receptor; compounds 455-509): ++ (activity was measured to be between 2.0 μM and 5.0 μM) |
| O=C(O[C@@H]1CCOC1)N1C2CCC1CC(N1CCC3(CCc4ccccc43)CC1)C2 (stereo partly shown) [compound 43] | > 85 | > 70 | +++ (activity was measured to be less than or equal to 0.7 μM) | + (activity was measured to be greater than or equal to 4.0 μM) |  |
